Results as given in patent publication US20100143379A1 (priority 2005, published 2010).
Each block holds one molecule with its values, some of them ahead of it.

Assays:
Type in all cases: cell-based
CD74 = CD74 phospho-serine sandwich ELISA; conditions: H-89 20 μM; RO-31-2880 10 μM; COS-7/CD74+CD44
Experimental: (§1) FIGS. 12A-12E show the phosphoserine content of CD74 and CD44 measured by ELISA. […] The ELISA values represent the mean±SD of triplicate measurements. Experiments were replicated twice. *P<0.02 versus corresponding control (Student's T test, two-tailed). […] Cell lysates were prepared and probed for PKA and PKC using phospho-specific, and total anti-PKA and anti-PKC antibodies.
The observation that the phosphoserine content of CD74 increased only in cells that expressed CD74 and full-length CD44 is consistent with the notion that the MIF-mediated phosphorylation of CD74 is dependent on the activity of the CD44 intracytoplasmic domain.
(§2) The serine phosphorylation of CD74 and CD44 was quantified by specific sandwich ELISA (Perez et al. (2003). Nature Immunol 4:1083-92). […] After several washes (0.5% Tween-20 in PBS), 0.2 μg/ml anti-phospho-serine antibody (Hypromatrix) conjugated with horseradish peroxidase was added, and immunoreactivity measured by the TMB reagent (DakoCytomation) and the data analyzed with SpectraMax Plus (Molecular Devices).
Cell lysates were collected and analyzed by immunoblots using a pair of anti-phospho-PICA and anti-(total)-PKA antibodies, a pair of anti-phospho-PKC (all from Cell Signaling) and anti-(total)-PKC (Santa Cruz) antibodies, or a pair of anti-phospho-p56^lck (Cell Signaling) and anti-(total) p56^lck (sc-433, Santa Cruz) antibodies.

CD44 = CD44 phospho-serine sandwich ELISA; conditions: H-89, 20 μM; RO-31-2880, 10 μM
Experimental: as §1
Ser325 is constitutively phosphorylated in resting cells, but undergoes de-phosphorylation in response to PKC activating stimuli such as phorbol esters. […] The effect of MIF-stimulation CD44 phosphorylation was analyzed in the COS-7 and MEF cell lines by sandwich ELISA using an anti-CD44 capture antibody to quantify CD44 phospho-serine residues (Perez et al. (2003). Nature Immunol. 4:1083-92). […]
as §2, with “Devices). […]” for “Devices).”

ERK-1/2 = ERK-1/2 phosphorylation in COS-7/M6 stable transformants (Western blot); conditions: 20 nM; COS-7/CD74+CD44 cell line or primary macrophages
[1] = test system: murine bone marrow progenitor cultures; test: BFU-E and CFU-E erythropoietin-dependent progenitor colony assays; conditions: 10-100 ng/ml MIF, 1-20 ng/ml TNFα, or 10-100 U/ml IFNγ
Experimental: Bone marrow cells were harvested, plated in a methylcellulose-based medium, and colony numbers scored after the addition of murine cytokines. Individual assays were performed in duplicate, and the data shown is a compilation of 3-6 independently performed experiments. % inhibition of colony formation is calculated with reference to a cytokine-minus control. All values shown are the mean±SD and are significant when compared to wells with no cytokine addition (P<0.05). CFU-E: colony forming unit—erythroid; BFU-E: burst-forming unit—erythroid.
The two inflammatory cytokines, TNFα and IFNγ, were also studied. TNFα and IFNγ are produced as a consequence of macrophage and T cell activation (McDevitt et al. 2004. Curr Hematol Rep 3:97-106). The appearance of BFU-E and CFU-E were quantified after culture with these cytokines, applied either alone or in combination.
BFU-E and CFU-E Progenitor Cell Assays. The progenitor cell (colony) assays were performed according to the standardized methods described previously (Martiney et al. 2000. Infection and Immunity 68:2259-2267) and protocols from StemCell Technologies (Vancouver; BC, Canada). Briefly, washed murine bone marrow cells were plated in sterile 35-mm dishes containing a methylcellulose-based medium and growth factors. The total number of bone marrow cells plated in duplicate culture dishes were as follows: 2×10^5 for CFU-E and 5×10^5 for BFU-E. MethoCult™ M3334 was utilized for the CFU-E and BFU-E colony assays. The media for CFU-E and BFU-E was volume adjusted by adding 1 part Isocove's MDM to 9 parts MethoCult™ M3334 to give final concentrations of the following components: 15% fetal bovine serum, 1% BSA, […] transferrin, […] insulin, 1% methylcellulose, 10^−4 M 2-mercaptoethanol, 2 mM L-glutamine and 3 units/ml erythropoietin. Each assay of different bone marrow progenitor cells was performed independently 3-6 times.

HIV-1ADA = test: HIV-1 replication in monocyte-derived macrophage cultures (RT activity); conditions: polymyxin B 10 μg/ml added to MIF 50 ng/ml
Experimental: (§3) Triplicate cultures of monocyte-derived macrophages were infected with HIV-1ADA in the presence of anti-MIF MAb (25 μg/ml) or isotype control. Virus replication was monitored by RT activity in culture supernatants. Results are presented as mean±SD. […] Control cultures were cultivated with PMB mixed with an isotype immunoglobulin with or without MIF.
as §3, with “To investigate this possibility, HIV-infected macrophages were cultured in the presence of a neutralizing anti-MIF antibody or isotype control. Triplicate” for “Triplicate”, “supernatants.” for “supernatants. Results are presented as mean±SD.”

MIF stimulation of CD74 phosphorylation in presence of kinase inhibitor (CD74): decreased markedly
serine phosphorylation of CD44 after MIF stimulation in presence of kinase inhibitor (CD44): reduced by PKA inhibition
Molecule: O=S(=O)(NCCNC/C=C/c1ccc(Br)cc1)c1cccc2cnccc12 [H-89, reference compound]

Molecule: COc1c(C=O)c(O)cc2c1C(=O)c1ccccc1C2=O [damnacanthal, reference compound]
phosphorylation of ERK1/2 (ERK-1/2): inhibition of the phosphorylation of p56^lck and ERK1/2

Molecule: TNFα
BFU-E and CFU-E colony formation [1]: dose-dependently inhibited

Molecule: polymyxin B [reference compound]
inhibitory effect of MIF on viral replication (HIV-1ADA): did not significantly reduce the inhibitory effect of MIF

B1: IFNγ: Recombinant mouse IFN-γ from R&D Systems (protein, UniProt P01580 23-155, looked up)
Interferon gamma: HGTVIESLESLNNYFNSSGIDVEEKSLFLDIWRNWQKDGDMKILQSQIISFYLRLFEVLKDNQAISNNISVIESHLITTFFSNSKAKKDAFMSIAKFEVNNPQVQRQAFNELIRVVHQLLPESSLRKRKRSRC
BFU-E and CFU-E colony formation [1]: dose-dependently inhibited
